This test relates to bicistronic genotype 1b replicon in Huh 7 cells (1b_Huh-Luc/Neo-ET cell line). The experiment in a line: HCV replicon assay, luciferase enzyme activity readout. It is filed as cell-based. The note with it: Hepatitis C virus, 1b_Huh-Luc/Neo-ET replicon cells, 72 h incubation, Bright-Glo luciferase readout, EC50 ranges, read-out: Inhibition of HCV genotype 1b. How it is done:
Biological activity of the compounds of the invention was determined using an HCV replicon assay. The 1b_Huh-Luc/Neo-ET cell line persistently expressing a bicistronic genotype 1b replicon in Huh 7 cells was obtained from ReBLikon GMBH. This cell line was used to test compound inhibition using luciferase enzyme activity readout as a measurement of compound inhibition of replicon levels.
On Day 1 (the day after plating), each compound is added in triplicate to the cells. Plates incubated for 72 h prior to running the luciferase assay. Enzyme activity was measured using a Bright-Glo Kit (cat. number E2620) manufactured by Promega Corporation. The following equation was used to generate a percent control value for each compound.
% Control=(Average Compound Value/Average Control)*100
The EC50 value was determined using GraphPad Prism and the following equation:
Y=Bottom+(Top−Bottom)/(1+10̂((Log IC50−X)*HillSlope))
EC50 values of compounds are repeated several times in the replicon assay.
For the compound `COC(=O)N[C@H](C(=O)N1CC(C)=CC1c1ncc(-c2ccc(-c3ccc4cc(-c5cnc([C@@H]6CCCN6C(=O)[C@@H](NC(=O)OC)C(C)C)[nH]5)ccc4c3)cc2)[nH]1)C(C)C` (stereo partly shown) [Compound 101], the EC50 is under 1 nM. Turning to `COC(=O)N[C@H](C(=O)N1CC(C)=C[C@H]1c1ncc(-c2ccc(C#Cc3ccc4nc([C@@H]5CCCN5C(=O)[C@@H](NC(=O)OC)C(C)C)[nH]c4c3)cc2)[nH]1)C(C)C` [Compound 102], the EC50 was under 1 nM.

`COC(=O)N[C@H](C(=O)N1CC(C)=C[C@H]1c1ncc(-c2ccc(C#Cc3ccc(-c4cnc([C@@H]5CCCN5C(=O)[C@@H](NC(=O)OC)C(C)C)[nH]4)cc3)cc2)[nH]1)C(C)C` [Compound 103]: the EC50 was under 1 nM.

`COC(=O)N[C@H](C(=O)N1CC(C)=C[C@H]1c1nc2ccc(C#Cc3ccc(-c4cnc([C@@H]5CCCN5C(=O)[C@@H](NC(=O)OC)C(C)C)[nH]4)cc3)cc2[nH]1)C(C)C` [Compound 104]: the EC50 was under 1 nM.

In the case of `COC(=O)N[C@H](C(=O)N1CC(C2CC2)=C[C@H]1c1ncc(-c2ccc(-c3ccc4cc(-c5cnc([C@@H]6CCCN6C(=O)[C@@H](NC(=O)OC)C(C)C)[nH]5)ccc4c3)cc2)[nH]1)C(C)C` [Compound 105], the EC50 was under 1 nM.

In the case of `COC(=O)N[C@H](C(=O)N1CC(C2CC2)=C[C@H]1c1ncc(-c2ccc(C#Cc3ccc4nc([C@@H]5CCCN5C(=O)[C@@H](NC(=O)OC)C(C)C)[nH]c4c3)cc2)[nH]1)C(C)C` [Compound 109], the EC50 was under 1 nM. As for `COC(=O)N[C@H](C(=O)N1CC(C2CC2)=C[C@H]1c1ncc(-c2ccc(C#Cc3ccc(-c4cnc([C@@H]5CCCN5C(=O)[C@@H](NC(=O)OC)C(C)C)[nH]4)cc3)cc2)[nH]1)C(C)C` [Compound 110], the EC50 was under 1 nM. Under `COC(=O)N[C@H](C(=O)N1CC(C)=C[C@H]1c1ncc(-c2ccc(C#Cc3ccc(-c4cnc([C@@H]5C=C(C)CN5C(=O)[C@@H](NC(=O)OC)C(C)C)[nH]4)cc3)cc2)[nH]1)C(C)C` [Compound 111] stands under 1 nM.

Turning to `COC(=O)N[C@H](C(=O)N1CC(C)=C[C@H]1c1ncc(-c2ccc3c(c2)Oc2ccc(-c4cnc([C@@H]5C=C(C)CN5C(=O)[C@@H](NC(=O)OC)C(C)C)[nH]4)cc2C3(C)C)[nH]1)C(C)C` [Compound 112], the EC50 was under 1 nM. To `COC(=O)N[C@H](C(=O)N1CC(C)=C[C@H]1c1ncc(-c2ccc3c(=O)c4cc(-c5cnc([C@@H]6C=C(C)CN6C(=O)[C@@H](NC(=O)OC)C(C)C)[nH]5)ccc4oc3c2)[nH]1)C(C)C` [Compound 113] belongs under 1 nM. Under `COC(=O)N[C@H](C(=O)N1CC(C2CC2)=C[C@H]1c1nc2ccc(-c3ccc4cc(-c5cnc([C@@H]6CCCN6C(=O)[C@@H](NC(=O)OC)C(C)C)[nH]5)ccc4c3)cc2[nH]1)C(C)C` [Compound 114] stands under 1 nM; under `COC(=O)N[C@H](C(=O)N1CC(C2CC2)=C[C@H]1c1nc2ccc(C#Cc3ccc(-c4cnc([C@@H]5CCCN5C(=O)[C@@H](NC(=O)OC)C(C)C)[nH]4)cc3)cc2[nH]1)C(C)C` [Compound 115], under 1 nM. Regarding `COC(=O)N[C@H](C(=O)N1CC(C2CC2)=C[C@@H]1c1nc2ccc(C#Cc3ccc(-c4cnc([C@@H]5CCCN5C(=O)[C@@H](NC(=O)OC)C(C)C)[nH]4)cc3)cc2[nH]1)C(C)C` [Compound 116], the EC50 was in the range of 1 to 9.9 nM.

In the case of `COC(=O)N[C@H](C(=O)N1CC(C)=C[C@H]1c1ncc(-c2ccc(C#Cc3ccc4c(ccc5nc([C@@H]6CCCN6C(=O)[C@@H](NC(=O)OC)C(C)C)[nH]c54)c3)cc2)[nH]1)C(C)C` [Compound 118], the EC50 was under 1 nM.

Regarding `COC(=O)N[C@H](C(=O)N1CC(C)=C[C@H]1c1ncc(-c2ccc3cc(-c4ccc5nc([C@@H]6CCCN6C(=O)[C@@H](NC(=O)OC)C(C)C)[nH]c5c4)ccc3c2)[nH]1)C(C)C` [Compound 119], the EC50 is under 1 nM. Consider `COC(=O)N[C@H](C(=O)N1CC(C)=C[C@H]1c1ncc(-c2ccc3cc(-c4ccc(-c5cnc([C@@H]6CCCN6C(=O)[C@@H](NC(=O)OC)C(C)C)[nH]5)cc4)ccc3c2)[nH]1)C(C)C` [Compound 120], for which the EC50 is under 1 nM. To `COC(=O)N[C@H](C(=O)N1CC(C)=C[C@H]1c1ncc(-c2ccc(-c3ccc4cc(-c5cnc([C@@H]6C=C(C)CN6C(=O)[C@@H](NC(=O)OC)C(C)C)[nH]5)ccc4c3)cc2)[nH]1)C(C)C` [Compound 121] belongs under 1 nM. Under `COC(=O)N[C@H](C(=O)N1CC(C)=C[C@H]1c1ncc(-c2ccc3cc(-c4ccc5nc([C@@H]6C=C(C7CC7)CN6C(=O)[C@@H](NC(=O)OC)C(C)C)[nH]c5c4)ccc3c2)[nH]1)C(C)C` [Compound 122] stands under 1 nM; under `COC(=O)N[C@H](C(=O)N1CC(C)=C[C@H]1c1ncc(-c2ccc3cc(C#Cc4cnc([C@@H]5CCCN5C(=O)[C@@H](NC(=O)OC)C(C)C)[nH]4)ccc3c2)[nH]1)C(C)C` [Compound 123], under 1 nM.

These data come from US20130310427A1, “INHIBITORS OF HCV NS5A PROTEIN” (PRESIDIO PHARMACEUTICALS, INC., priority 2010, published 2013).
